Activity calls are given as the source filed them. The rule behind the calls is not given here.
What was measured:
A549 [1] = assay: Cytotoxicity against human A549 cells after 72 hrs by CCK-8 assay; format: functional, cell-based; conditions: A549, 72 h
HUVEC [2] = assay: Antiproliferative activity against activated HUVECs after 48 hrs by CCK-8 assay; format: functional, cell-based; conditions: Homo sapiens
HUVEC [3] = assay: Antiproliferative activity against quesicent HUVECs after 48 hrs by CCK-8 assay; format: cell-based; conditions: Homo sapiens
HUVEC [4] = assay: Selectivity ratio of IC50 for quesicent HUVECs to IC50 for activated HUVECs; format: functional, Homo sapiens
HeLa = assay: Cytotoxicity against human HeLa cells after 72 hrs by CCK-8 assay; format: functional, cell-based
HT-1080 = assay: Cytotoxicity against human HT1080 cells after 72 hrs by CCK-8 assay; format: functional, cell-based; conditions: HT-1080, 72 h
HepG2 = assay: Cytotoxicity against human HepG2 cells after 72 hrs by CCK-8 assay; format: functional, cell-based; conditions: HepG2, 72 h
A549 [5] = assay: Antiangiogenic activity in human A549 cells xenografted in BALB/c nu/nu mouse assessed as disruption of tumor vasculature at 100 mg/kg, ip after 16 hrs by Hoechst 33342 staining-based Zeiss microscopic analysis relative to control; format: functional; conditions: route intraperitoneal
A549 [6] = assay: Antimitotic activity in human A549 cells assessed as disruption of microtubule organization at 0.01 uM after 16 hrs by DAPI staining-based Zeiss microscopic analysis relative to control; format: functional, cell-based
A549 [7] = assay: Cell cycle arrest in human A549 cells assessed as accumulation at G2/M phase at 0.1 uM after 24 hrs by propidium iodide staining-based FACS flow cytometric analysis (reference value: 8.52%); format: functional
A549 [8] = assay: Cell cycle arrest in human A549 cells assessed as accumulation at S phase at 0.1 uM after 24 hrs by propidium iodide staining-based FACS flow cytometric analysis (reference value: 32.56%); format: functional
HUVEC [9] = assay: Antiangiogenic activity in activated HUVECs assessed as inhibition of capillary tube formation at 0.1 uM after 22 hrs by light microscopic analysis; format: functional, cell-based; conditions: Homo sapiens
HUVEC [10] = assay: Antiangiogenic activity in quesicent HUVECs assessed as disruption of preformed capillaries at 0.1 uM after 4 hrs by light microscopic analysis (reference value: 11%); format: cell-based; conditions: human
HUVEC [11] = assay: Antiangiogenic activity in quesicent HUVECs assessed as disruption of preformed capillaries at 1 uM after 4 hrs by light microscopic analysis relative to control; format: cell-based; conditions: human
A549 [12] = assay: Antimitotic activity in human A549 cells assessed as disruption of microtubule organization at 0.05 uM after 16 hrs by DAPI staining-based Zeiss microscopic analysis relative to control; format: functional, cell-based
Tubulin (Homo sapiens) = Tubulin (Homo sapiens) (UniProt P68371+Q9H4B7+P0DPH7+P68366+Q13509+Q71U36+P04350+Q3ZCM7+P07437+P68363+Q9BQE3+Q6PEY2+Q13885+Q9BVA1+Q9BUF5); assay: Inhibition of tubulin polymerization in human A549 cells at 0.1 uM after 6 hrs by Western blotting analysis; format: cell-based
A549 [13] = assay: Cell cycle arrest in human A549 cells assessed as accumulation at G1 phase at 0.1 uM after 24 hrs by propidium iodide staining-based FACS flow cytometric analysis (reference value: 53.57%); format: functional
A549 [14] = assay: Antimitotic activity in human A549 cells assessed as disruption of microtubule organization at 0.1 uM after 16 hrs by DAPI staining-based Zeiss microscopic analysis relative to control; format: functional, cell-based

COc1ccc(C(=O)c2cn(C(C)=O)c3c(OC)c(OC)c(OC)cc23)cc1
IC50 (A549 [1]): 5270 nM

COc1ccc(C(=O)c2c(C)n(C)c3c(OC)c(OC)c(OC)cc23)cc1O
IC50 (HUVEC [2]): 43.7 nM | IC50 (HUVEC [3]; read-out: IC50): 161 nM | Ratio IC50 (HUVEC [4]): 3.68 | IC50 (A549 [1]): 108 nM | IC50 (HeLa): 632 nM | IC50 (HT-1080): 574 nM | IC50 (HepG2): 91.6 nM

COc1cccc(C(=O)c2c[nH]c3c(OC)c(OC)c(OC)cc23)c1
IC50 (A549 [1]): > 10000 nM

COc1ccccc1C(=O)c1c[nH]c2c(OC)c(OC)c(OC)cc12
IC50 (A549 [1]): > 10000 nM

COc1ccc(Cc2cn(C)c3c(OC)c(OC)c(OC)cc23)cc1F
IC50 (A549 [1]): 144 nM

COc1ccc(/C=C\c2cc(OC)c(OC)c(OC)c2)cc1O [COMBRETASTATIN A4]
Activity (A549 [5]): 72% | IC50 (HUVEC [2]): 3.34 nM | IC50 (HUVEC [3]; read-out: IC50): 8.9 nM | Ratio IC50 (HUVEC [4]): 2.66 | Activity (A549 [6]): Active | IC50 (A549 [1]): 3.64 nM

COc1ccc(C(=O)c2c[nH]c3c(OC)c(OC)c(OC)cc23)cc1O
IC50 (HUVEC [2]): 327 nM | IC50 (HUVEC [3]; read-out: IC50): 2980 nM | Ratio IC50 (HUVEC [4]): 9.1 | IC50 (A549 [1]): 166 nM

COc1ccc(Cc2c[nH]c3c(OC)c(OC)c(OC)cc23)cc1O
IC50 (HUVEC [2]): 228 nM | IC50 (HUVEC [3]; read-out: IC50): 2450 nM | Ratio IC50 (HUVEC [4]): 10.8 | IC50 (A549 [1]): 118 nM | IC50 (HeLa): 149 nM | IC50 (HT-1080): 118 nM | IC50 (HepG2): 72.2 nM

COc1ccc(C(=O)c2cn(C)c3c(OC)c(OC)c(OC)cc23)cc1
IC50 (A549 [1]): 482 nM

COc1ccc(C(=O)c2cn(C)c3c(OC)c(OC)c(OC)cc23)cc1O
Activity (A549 [5]): 68% | Activity (A549 [7]): 78.85% | Activity (A549 [8]): 14.34% | IC50 (HUVEC [2]): 25.3 nM | IC50 (HUVEC [3]; read-out: IC50): 5240 nM | Ratio IC50 (HUVEC [4]): 207 | inhibition (HUVEC [9]): Active | Activity (HUVEC [10]): 13% | Activity (HUVEC [11]): 49% | Activity (A549 [12]): Active | inhibition (Tubulin (Homo sapiens)): 27% | Activity (A549 [13]): 5.07% | IC50 (A549 [1]): 28.3 nM | IC50 (HeLa): 125 nM | IC50 (HT-1080): 26.3 nM | IC50 (HepG2): 44.5 nM

COc1ccc(Cc2cn(C)c3c(OC)c(OC)c(OC)cc23)cc1O
Activity (A549 [7]): 80.48% | Activity (A549 [8]): 14.7% | IC50 (HUVEC [2]): 8.9 nM | IC50 (HUVEC [3]; read-out: IC50): 6300 nM | inhibition (HUVEC [9]): Active | Activity (HUVEC [10]): 10% | Activity (HUVEC [11]): 51% | Activity (A549 [14]): Active | inhibition (Tubulin (Homo sapiens)): 31% | Activity (A549 [13]): 3.9% | IC50 (A549 [1]): 71.7 nM | IC50 (HeLa): 40.7 nM | IC50 (HT-1080): 42.2 nM | IC50 (HepG2): 45.5 nM

COc1ccc(C(=O)c2cn(C)c3c(OC)c(OC)c(OC)cc23)cc1F
IC50 (HUVEC [2]): 96.4 nM | IC50 (HUVEC [3]; read-out: IC50): 151 nM | Ratio IC50 (HUVEC [4]): 1.56 | IC50 (A549 [1]): 146 nM

COc1ccc(Cc2c[nH]c3c(OC)c(OC)c(OC)cc23)cc1F
IC50 (A549 [1]): 387 nM

COc1cc(Cc2c[nH]c3c(OC)c(OC)c(OC)cc23)cc(OC)c1OC
IC50 (A549 [1]): > 10000 nM

COc1ccc(C(=O)c2cn(S(=O)(=O)c3ccccc3)c3c(OC)c(OC)c(OC)cc23)cc1
IC50 (A549 [1]): > 10000 nM

COc1ccc(C(=O)c2c(C)[nH]c3c(OC)c(OC)c(OC)cc23)cc1O
IC50 (A549 [1]): 2620 nM

COc1ccc(C(=O)n2ccc3cc(OC)c(OC)c(OC)c32)cc1O
IC50 (A549 [1]): > 10000 nM

COc1ccc(C(=O)c2c[nH]c3c(OC)c(OC)c(OC)cc23)cc1I
IC50 (A549 [1]): > 10000 nM

COc1ccc(C(=O)c2c[nH]c3c(OC)c(OC)c(OC)cc23)cc1Cl
IC50 (A549 [1]): > 10000 nM

COc1ccc(Cc2c[nH]c3c(OC)c(OC)c(OC)cc23)cc1
IC50 (A549 [1]): 2990 nM

COc1cc2c(c(OC)c1OC)-c1ccc(OC)c(=O)cc1[C@@H](NC(C)=O)CC2 [COLCHICINE]
IC50 (HUVEC [2]): 8.91 nM | IC50 (HUVEC [3]): 7.6 nM | inhibition (HUVEC [9]): Active | Activity (HUVEC [10]): 56% | IC50 (HeLa): 37.4 nM | IC50 (HT-1080): 15.4 nM | IC50 (HepG2): 46.7 nM

COc1ccc(C(=O)c2c[nH]c3c(OC)c(OC)c(OC)cc23)cc1F
IC50 (A549 [1]): > 10000 nM

COc1cc(C(=O)c2c[nH]c3c(OC)c(OC)c(OC)cc23)cc(OC)c1OC
IC50 (A549 [1]): > 10000 nM

COc1ccc(C(=O)c2c[nH]c3c(OC)c(OC)c(OC)cc23)cc1
IC50 (A549 [1]): 8290 nM

COc1ccc(Cn2ccc3cc(OC)c(OC)c(OC)c32)cc1
IC50 (A549 [1]): 3090 nM

COc1cc2c(C(=O)c3ccc(C)cc3)c[nH]c2c(OC)c1OC
IC50 (A549 [1]): > 10000 nM

COc1ccc(Cn2ccc3cc(OC)c(OC)c(OC)c32)cc1O
IC50 (A549 [1]): 3190 nM

COc1ccc(C(=O)n2ccc3cc(OC)c(OC)c(OC)c32)cc1
IC50 (A549 [1]): > 10000 nM
